For one compound, tolerated subcutaneous dose results are on record in US4476117A, “Dimers of peptide amides” (Imperial Chemical Industries PLC, priority 1982, dated 1984).

The nature of the series: tolerance in the rat, subcutaneous dose. Type of series: in vivo. The procedure:
As an indication of the lack of toxicity of a specific compound of the invention, namely [diallyl-Tyr-Gly-Gly-Phe-Leu-NH-CH2 -]2, that compound is tolerated in the rat at a subcutaneous dose of at least 15 mg./kg.

Numbered stars: 1 amine (or outer) side, 2 acyl side, 3 side chain; on linkers, the order of the positions; unused ones are H or OH. Bridge positions count the residues as written; N and C are the ends. Peptide text beside a SMILES is read from it. I, II: the chains in the order shown. * marks the point of attachment. Tyr(Nα,Nα-allyl2) = C=CCN(CC=C)[C@@H](Cc1ccc(O)cc1)C(=O)*; Ethylenediamine = C(CN[*:2])N[*:1]

For `C=CCN(CC=C)[C@@H](Cc1ccc(O)cc1)C(=O)NCC(=O)NCC(=O)N[C@@H](Cc1ccccc1)C(=O)N[C@@H](CC(C)C)C(=O)NCCNC(=O)[C@H](CC(C)C)NC(=O)[C@H](Cc1ccccc1)NC(=O)CNC(=O)CNC(=O)[C@H](Cc1ccc(O)cc1)N(CC=C)CC=C` [Example 1, (diallyl-Tyr-Gly-Gly-Phe-Leu-NH-CH2 -)2 bis-trifluoroacetate] (I: {Tyr(Nα,Nα-allyl2)}-GGFL / II: {Tyr(Nα,Nα-allyl2)}-GGFL; linker I:C-II:C via Ethylenediamine), the tolerated subcutaneous dose result is given as “at least 15 mg./kg”.
